Results published in patent US12280026B2, “Use of repirinast in the prophylaxis or treatment of renal fibrosis or kidney disease” (ALGERNON PHARMACEUTICALS INC., priority 2018, dated 2025).
“Also recorded” adds a separate entry of the source.

Key:
Assay type in all cases: in vivo
[1] = Example 1: UUO mice, mean body weight change following surgery; conditions: Example 1, mostly post-surgical day 14, male C57BL/6 mice, PO QD days 1-14, doses of Table 1
Description: (§1) Male 9-12 week old C57BL/6 mice of 23-25 grams body weight were used. All mice were acclimated for a minimum of 5 days prior to the start of the study and housed individually in microisolators throughout the study in a 12:12 light-dark cycle on a standard maintenance mouse chow diet (Harlan Teklad 2018) with food and water given ad libitum. Prior to surgery, all mice were weighed for baseline body weight.
(§2) The UUO surgical intervention was performed according to previously described methods known in the art (Le Meur Y et al., Macrophage accumulation at a site of renal inflammation is dependent on the M-CSF/c-fms pathway, J Leukocyte Biol., 72:530-537; 2002).
(§3) All mice were first anesthetized by intraperitoneal injection with a rodent cocktail (ketamine 10 mg/mL and Xyaline 1 mg/mL) in normal saline (10 μL/g body weight). Pedal reflex and movement of the vibrissae were used to determine the state of unconsciousness. A state of unconsciousness was confirmed after a period of about 5 minutes in all animals. All mice were then shaved on the left side of the abdomen. The shaved area was first swabbed with iodine and then swabbed with alcohol. A vertical incision was made through the skin with a #22 scalpel and the skin was then retracted. A further incision of about 2.5 cm was then made through the peritoneum avoiding any major blood vessels. The peritoneum was then retracted and the left kidney was exposed.
(§4) The left kidney was then brought to the surface by hooking the ureter directly beneath the kidney with sterile forceps and gently manipulating the kidney upward. The ureter was ligated at two points directly below the kidney with 5-0 surgical silk with excess suture cut away and discarded post-ligation. The kidney was then gently placed back to its correct anatomical position and the abdomen was lavaged with 1 mL sterile saline to replenish fluid loss. The peritoneum and then skin were sutured with 5-0 Mersilene, and the incision site was gently wiped with iodine. All mice were then placed individually in clean cages that were set on top of a thermal blanket until recovery at about 30-60 minutes later. In some examples, sham surgery was performed as a control by following all steps of the UUO surgical intervention procedure except ligation.
(§5) Following surgery, the mice were divided into 14 individual study groups of 8 mice each and, following post-surgical recovery, administered a once-daily oral treatment for 14 days. The mice in 12 of the 14 study groups (hereafter known as “treatment groups”) had all received the UUO surgical ligation and were treated individually with a distinct pharmacologic compound as set out in Table 1. The mice in 2 of the 14 study groups were treated individually with a pharmaceutically acceptable vehicle with no active ingredient. The pharmaceutically acceptable vehicle in all groups was 0.5% carboxymethyl cellulose (CMC). All mice were sacrificed with CO2 on post-surgical day 15.
(§6) The dose selected for the animal studies was determined by taking the maximum known human daily dose, dividing by the average weight of an adult (˜60-70 kg) to get a human mg/kg dose. […]
Body weight: The body weights were measured on days 1, 2, 5, 8, 10 and 14 using a laboratory balance.
Body weights were measured on post-surgical days 1, 2, 5, 8, 10 and 14 as previously described. The mean body weight change of each study group was calculated using the body weight average of all mice in each study group.

[2] = test system: C57BL/6 mice with UUO surgical ligation; assay: Example 1: UUO mice, renal function evaluation (plasma BUN, creatinine); conditions: for BUN in comparison to control groups, in words / Reduction in levels of BUN compared to vehicle, significance in words: Example 1; for BUN in comparison to control groups, in words: UUO, male C57BL/6 mice, PO QD days 1-14, doses of Table 1; for Reduction in BUN compared to vehicle, in words, post-test not stated: Example 1 text and conclusions, Bemithyl 200, Repirinast 30, Bromantane 20, Telmisartan 5 mg/kg PO QD; for Reduction in levels of BUN compared to vehicle, significance in words: p<0.05, Tamhane post-test, Repirinast 30, Bemithyl 200, Bromantane 20 mg/kg PO QD
Description: as §1, §2, §3, §4, §5
The dose selected for the animal studies was determined by taking the maximum known human daily dose, dividing by the average weight of an adult (˜60-70 kg) to get a human mg/kg dose. Then that number was multiplied by 12 to convert to a mouse dose based on conventional dosing tables. See Nair and Jacob, J Basic Clin Pharm March 2016-May 2016, 7(2):27-31.
Serum collection: A blood sample was then collected from all mice and plasma analyzed for urea nitrogen and creatinine. Plasma was stored at −80° C. for possible future analysis.
Renal Function Evaluation: Renal function and disease progression was evaluated by BUN (blood urea nitrogen) as previously described. The BUN of each study group consisted of the BUN average of all mice in each study group.

[3] = test system: C57BL/6 mice with UUO surgical ligation; assay: Example 1: UUO mice, renal fibrosis evaluation (Sirius Red histology score); conditions: Bemithyl 200, Emoxypine 160, Suplatast Tosylate 60, Udenafil 40, Telmisartan 5 mg/kg PO QD
Description: as §1, §2, §3, §4, §5, §6
Histopathology: Formalin-fixed kidney cross-section samples were subjected histopathological scoring with Sirius Red staining, and imaged at a magnification of ×20, using standard techniques. All three sections were stained and evaluated. […] The presence of interstitial damage and severity score was assessed according to the following criteria: 0=normal, 1=light, 2=moderate, 3=severe. […]

[4] = test system: C57BL/6 mice with UUO surgical ligation; assay: Example 1: UUO mice, kidney weight evaluation (ligated vs non-ligated kidney); conditions: doses of Table 1 (Telmisartan 5 mg/kg)
Description: as §1
The UUO surgical intervention was performed according to previously described methods known in the art (Le Meur Y et al., Macrophage accumulation at a site of renal inflammation is dependent on the M-CSF/c-fms pathway, J Leukocyte Biol., 72:530-537; 2002). […]
as §6
Kidney weight: The UUO was then examined in situ to ensure that the surgical ligation ties remained patent. […] Weights of both kidneys were measured using a laboratory balance.
Kidney Weight Evaluation: Kidney weight indicating, which indicates functional and pathological changes in the kidney, was evaluated by measuring the weight of both the ligated (UUO) and non-ligated kidneys as previously described. […]

CCSc1nc2ccccc2[nH]1 [Bemithyl, 2-Ethylsulfanyl-1H-benzoimidazole]
Mean body weight change, comparison with control groups, in words [1]: even greater than that of the sham surgery control group; also recorded: appeared to reverse the negative effects of UUO on body weight gain | BUN in comparison to control groups, in words [2]: less renal dysfunction and disease progression than the positive control treatment; also recorded: decreased in comparison to the sham surgery control group; also recorded: most improved renal function of all | Reduction in BUN compared to vehicle, in words, post-test not stated [2]: reduction in BUN compared to vehicle | Reduction in levels of BUN compared to vehicle, significance in words [2]: significant reductions in the levels of BUN | Kidney fibrosis / Histology Score, significance and comparison in words [3]: decreased in comparison to the positive control treatment group; also recorded: significant reductions in kidney fibrosis; also recorded: significant improvement in kidney fibrosis

Brc1ccc(NC2C3CC4CC(C3)CC2C4)cc1 (stereo not shown) [Bromantane, N-(4-Bromophenyl)adamantan-2-amine]
Mean body weight change, comparison with control groups, in words [1]: comparable to that of the surgery vehicle control group | BUN in comparison to control groups, in words [2]: less renal dysfunction and disease progression than the positive control treatment; also recorded: decreased in comparison to the sham surgery control group | Reduction in BUN compared to vehicle, in words, post-test not stated [2]: significant reductions in BUN compared to vehicle | Reduction in levels of BUN compared to vehicle, significance in words [2]: significant reductions in the levels of BUN

Cc1ccc2c([nH]c(=O)c3c(=O)cc(C(=O)OCCC(C)C)oc32)c1C [Repirinast, 3-methylbutyl 7,8-dimethyl-4,5-dioxo-5,6-dihydro-4H-pyrano[3,2-c]quinoline-2-carboxylate]
Mean body weight change, comparison with control groups, in words [1]: greater decrease in body weight | BUN in comparison to control groups, in words [2]: less renal dysfunction and disease progression than the positive control treatment; also recorded: decreased in comparison to the sham surgery control group | Reduction in BUN compared to vehicle, in words, post-test not stated [2]: significant reductions in BUN compared to vehicle | Reduction in levels of BUN compared to vehicle, significance in words [2]: significant reductions in the levels of BUN

CCCc1nc2c(C)cc(-c3nc4ccccc4n3C)cc2n1Cc1ccc(-c2ccccc2C(=O)O)cc1 [Telmisartan, 2-(4-{[4-Methyl-6-(1-methyl-1H-1,3-benzodiazol-2-yl)-2-propyl-1H-1,3-benzodiazol-1-yl]methyl}phenyl)benzoic acid]
Reduction in BUN compared to vehicle, in words, post-test not stated [2]: did not show a significant reduction; also recorded: the former was not statistically significant | Disparity in weight between ligated and non-ligated kidney, in words [4]: greatest numerical reduction in the disparity between the two kidneys; also recorded: appeared to reduce the disparity in kidney size | Kidney fibrosis / Histology Score, significance and comparison in words [3]: significant reduction; also recorded: reduction in BUN levels and fibrosis
